The values below come from patent US20120184542A1, “PYRIDO PYRIMIDINES” (priority 2011, published 2012).

The structures appear in SMILES notation. Counter-ions that a name gives are not always drawn.

Broadly, the IC50 is the point on the concentration scale where inhibition reaches its midpoint. By EC50 is commonly meant the concentration at which the effect is half-maximal.

One test concerns the target T1, Human DYRK1B (Homo sapiens, UniProt Q9Y463).
T1 construct: purchased Invitrogen PR8350B (former PV4649)
In words: DYRK1B Kinase TR-FRET (IMAP-Tb) Assay. The format is biochemical. The note with it: TR-FRET (IMAP-Tb); ATP 70 μM; 37° C. 60 minutes; read-out: Enzyme IC50 (μM) DYRK1B. For orientation: Time-resolved FRET reads energy transfer from a long-lived donor to a nearby acceptor.

The next test has as its target T2, Human DYRK1A (Homo sapiens, UniProt Q13627).
T2 construct: purchased Invitrogen PV3997
In words: DYRK1A Kinase TR-FRET (IMAP-Tb) Assay. The class given is biochemical. The conditions noted are these: TR-FRET (IMAP-Tb); ATP 70 μM; 37° C. 60 minutes; read-out: Enzyme IC50 (μM) DYRK1A. The method in brief: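 Recombinant human DYRK1A phosphorylated fluorescent substrate peptide (1.0 μM) with ATP in 10 mM HEPES pH 7.0, 50 mM NaCl, 5 mM MgCl2, 1 mM DTT, 1 mM NaVO4, 0.02% BSA for 60 min at 37 °C. Phosphopeptide detected by IMAP terbium TR-FRET; IC50 reported.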

Test [1] has as its system SW620 human colon cancer cells. In words: SW620 Cell Viability Assay. The note with it: Homo sapiens, SW-620, 96 h, CellTiter-Glo; 4 days incubation; read-out: Cellular EC50 (μM) SW620. The class given is cell-based. The method in brief:
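SW620 human colon cancer cells, some attached 24 h then serum-starved 48 h before dosing; compounds prepared in serum-supplemented medium. Cells incubated with compound 4 days at 37 °C, 5% CO2, and viability measured by CellTiter-Glo luminescence.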
In general terms: In ATP-based viability assays light output follows the ATP content of the culture.

T1 sequence (Q9Y463 whole entry): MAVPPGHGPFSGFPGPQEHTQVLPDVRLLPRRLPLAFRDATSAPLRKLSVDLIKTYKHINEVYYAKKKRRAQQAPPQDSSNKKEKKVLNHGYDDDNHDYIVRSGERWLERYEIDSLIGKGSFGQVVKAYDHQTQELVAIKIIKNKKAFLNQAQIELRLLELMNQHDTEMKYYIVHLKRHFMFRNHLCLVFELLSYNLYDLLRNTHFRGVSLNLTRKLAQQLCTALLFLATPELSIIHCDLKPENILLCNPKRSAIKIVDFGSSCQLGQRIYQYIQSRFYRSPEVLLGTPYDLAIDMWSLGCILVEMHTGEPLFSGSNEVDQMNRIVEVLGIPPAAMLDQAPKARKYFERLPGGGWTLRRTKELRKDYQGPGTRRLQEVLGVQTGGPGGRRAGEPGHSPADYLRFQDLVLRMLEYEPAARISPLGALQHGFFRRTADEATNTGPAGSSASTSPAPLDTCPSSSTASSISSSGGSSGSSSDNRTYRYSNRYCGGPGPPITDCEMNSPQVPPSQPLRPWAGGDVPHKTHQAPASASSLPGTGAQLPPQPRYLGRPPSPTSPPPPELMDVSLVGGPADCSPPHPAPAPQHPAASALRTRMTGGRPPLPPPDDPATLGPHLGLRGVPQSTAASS

`O=C(NCc1cccc(Cl)c1)c1ccc(Cl)c(NC(=O)c2cc3cnc(N4C[C@H]5CC[C@@H](C4)O5)nc3[nH]c2=O)c1` [Example 179, 2-(1R,5S)-8-Oxa-3-aza-bicyclo [3.2.1]oct-3-yl-7-oxo-7,8-dihydro-pyrido[2,3-d]pyrimidine-6-carboxylic acid [2-chloro-5-(3-chloro-benzylcarbamoyl)-phenyl]amide]: the IC50 on Human DYRK1B came out at 0.131 µM; on Human DYRK1A, 0.0369 µM. The EC50 in test [1] came out at 0.367 µM.

As for `O=C(NC(CO)c1ccccc1)c1ccc(Cl)c(NC(=O)c2cc3cnc(N4C[C@H]5CC[C@@H](C4)O5)nc3[nH]c2=O)c1` (stereo partly drawn) [Example 181, 2-(1R,5S)-8-Oxa-3-aza-bicyclo [3.2.1]oct-3-yl-7-oxo-7,8-dihydro-pyrido[2,3-d]pyrimidine-6-carboxylic acid [2-chloro-5-(2-hydroxy-1-phenyl-ethylcarbamoyl)-phenyl]amide], the IC50 on Human DYRK1B amounted to 0.148 µM; on Human DYRK1A it was 0.063 µM. Further, the EC50 in test [1] is 1.88 µM.

In the case of `O=C(NC(CCO)c1ccccc1)c1ccc(Cl)c(NC(=O)c2cc3cnc(N4C[C@H]5CC[C@@H](C4)O5)nc3[nH]c2=O)c1` (stereo partly drawn) [Example 182, 2-(1R,5S)-8-Oxa-3-aza-bicyclo [3.2.1]oct-3-yl-7-oxo-7,8-dihydro-pyrido[2,3-d]pyrimidine-6-carboxylic acid [2-chloro-5-(3-hydroxy-1-phenyl-propylcarbamoyl)-phenyl]amide], the half-inhibitory concentration (IC50) was 0.081 µM on Human DYRK1B and 0.083 µM on Human DYRK1A. Further, in test [1], the EC50 was found to be 1.12 µM.

In the case of `NCCC(NC(=O)c1ccc(Cl)c(NC(=O)c2cc3cnc(N4C[C@H]5CC[C@@H](C4)O5)nc3[nH]c2=O)c1)c1ccccc1` (stereo partly drawn) [Example 183, 2-(1R,5S)-8-Oxa-3-aza-bicyclo [3.2.1]oct-3-yl-7-oxo-7,8-dihydro-pyrido[2,3-d]pyrimidine-6-carboxylic acid [5-(3-amino-1-phenyl-propylcarbamoyl)-2-chloro-phenyl]amide; hydrochloride], the values for the IC50 on Human DYRK1B and at Human DYRK1A were 0.0077 µM and 0.0046 µM, respectively. Moreover, the EC50 in test [1] is 0.027 µM.

With `COc1ncc2cc(C(=O)Nc3cc(C(=O)NCC[C@@H](N)c4ccccc4)ccc3Cl)c(=O)[nH]c2n1` [Example 184, (R)—N-(5-(3-Amino-3-phenylpropylcarbamoyl)-2-chlorophenyl)-2-methoxy-7-oxo-7,8-dihydropyrido[2,3-d]pyrimidine-6-carboxamide], the IC50 was 0.691 µM on Human DYRK1B and 0.331 µM on Human DYRK1A. Besides, in test [1], the EC50 was 5.09 µM.
